{
  "source": "paper PMC9000871",
  "about": "“Rhodamine 101 Conjugates of Triterpenoic Amides Are of Comparable Cytotoxicity as Their Rhodamine B Analogs” (Molecules, 2022)",
  "note": "Where a name gives a salt, the structure may show the parent alone.",
  "data": [
    {"units": {"melting point": "°C"}, "values": [
      {"smiles": "C=C(C)[C@@H]1CC[C@]2(C(=O)N3CCN(C(=O)c4ccccc4-c4c5ccc(=[N+](CC)CC)cc-5oc5cc(N(CC)CC)ccc45)CC3)CC[C@]3(C)C(CCC4[C@@]5(C)CC[C@H](OC(C)=O)C(C)(C)C5CC[C@]43C)C12", "note": "(stereo partly drawn) (as salt: chloride) [compound 13, 9-[2-[[4-(3β-Acetyloxy-28-oxo-lup-20(29)en-28-yl)-1-piperazinyl]carbonyl]phenyl]-3,6-bis(diethylamino)-xanthylium chloride]", "melting point": "247 to 252"},
      {"smiles": "CCN(CC)c1ccc2c(-c3ccccc3C(=O)N3CCN(C(=O)[C@]45CC[C@@H](C)[C@H](C)C4C4=CCC6[C@@]7(C)CC[C@H](OC(C)=O)C(C)(C)C7CC[C@@]6(C)[C@]4(C)CC5)CC3)c3ccc(=[N+](CC)CC)cc-3oc2c1", "note": "(stereo partly drawn) (as salt: chloride) [compound 15, 9-[2-[[4-(3β-Acetyloxy-28-oxo-ursan-12-en-28-yl)-1-piperazinyl]carbonyl]phenyl]-3,6-bis(diethylamino)-xanthylium chloride]", "melting point": "245 to 251"},
      {"smiles": "CCN(CC)c1ccc2c(-c3ccccc3C(=O)N3CCN(C(=O)[C@]45CC[C@@H](C(C)=O)C4C4CCC6[C@@]7(C)CC[C@H](OC(C)=O)C(C)(C)C7CC[C@@]6(C)[C@]4(C)CC5)CC3)c3ccc(=[N+](CC)CC)cc-3oc2c1", "note": "(stereo partly drawn) (as salt: chloride) [compound 16, 9-[2-[[4-(3β-Acetyloxy-20,28-dioxo-30-norlupan-28-yl)-1-piperazinyl]carbonyl]phenyl]-3,6-bis(diethylamino)-xanthylium chloride]", "melting point": "247 to 254"},
      {"smiles": "CCN(CC)c1ccc2c(-c3ccccc3C(=O)N3CCCN(C(=O)[C@]45CC[C@@H](C)[C@H](C)C4C4=CCC6[C@@]7(C)CC[C@H](OC(C)=O)C(C)(C)C7CC[C@@]6(C)[C@]4(C)CC5)CC3)c3ccc(=[N+](CC)CC)cc-3oc2c1", "note": "(stereo partly drawn) (as salt: chloride) (hydrate or solvate) [compound 19, 9-[2-[[4-(3β-Acetyloxy-28-oxo-urs-12-en-28-yl]-1-homopiperazinyl]carbonyl]phenyl]-3,6-bis(diethylamino)-xanthylium chloride]", "melting point": "238 to 246"}
    ]}
  ]
}
